Publication PMC8363620, “The ERAP1 active site cannot productively access the N-terminus of antigenic peptide precursors stably bound onto MHC class I” (Scientific Reports, 2021)
Where a SMILES comes first, the peptide text is derived from it. The star is where a group is joined. X1 = CC(C)CC(CP(=O)(O)[C@@H](N)CCc1ccccc1)C(=O)*

How the values were obtained:
HLA-B*08:01(E76C) = HLA-B*08:01(E76C) (Homo sapiens, UniProt P01889, A93T/A95T/D138N/E176V/E187T/K202T/Q94N/R180D/S35A/V36M/Y33D/Y91F); assay: Thermal shift assay (DSF), melting temperature of HLA-B*08(E76C)/peptide complex; format: physicochemical; conditions: purified complex, Fig. 1F three repetitions shown
Procedure: The assay as well as the calculation of the melting temperature (Tm) of the complexes HLA-B*08:01(E76C)-DG080 and HLA-B*08:01(E76C)-AI12Cys were performed as previously reported.

HLA-B*08(E76C) [1] = molecular target: T1, HLA-B*08(E76C) (Homo sapiens, UniProt P01889, A93T/A95T/D138N/E100C/E176V/E187T/K202T/Q94N/R180D/S35A/V36M/Y33D/Y91F); assay: Kinetic stability of complex by competition with SYPRO Orange (peptide dissociation); format: binding; conditions: 37 °C
T1 construct: made in house
Procedure: (§1) The assay was performed in the Lightcycler 96 RT-PCR instrument as previously reported. Reaction mixtures (total volume 20 μL) consisted of 16 μL protein complex (final concentration 8 μΜ) and 4 μL of 50X SYPRO Orange dye (Sigma–Aldrich, S5692). Excitation wavelength was set at 533 nm and emission at 572 nm. The temperature was set at 37 °C for the duration of the experiment.

HLA-B*08(E76C) [2] = molecular target: T1, HLA-B*08(E76C); assay: Peptide exchange with excess 9mer […] (AI9), native-PAGE; format: binding
Procedure: Separating gel was prepared by mixing 2.9 mL Tris–HCl 0.375 M pH 8.8 solution, 2 mL acrylamide solution 30%, 100 μL APS 10% w/v and 5 μL TEMED. Stacking gel was formed by mixing 2.14 mL Tris–HCl 0.375 M pH 8.8 solution, 0.34 mL acrylamide solution 30%, 50 μL APS 10% w/v and 5 μL TEMED. Sample loading buffer was formed by mixing 62.5 mM Tris–HCl pH 6.8 solution, 25% v/v glycerol and 1% v/v bromophenol blue solution. Running buffer consists of 25 mM Tris-base and 192 mM glycine. Electrophoresis is conducted at 4 °C, 100 V for 5 h. 1,5 µg of MHC I-peptide complexes and 3 µg of ERAP1 were used.

ERAP1 [3] = molecular target: T2, ERAP1 (Homo sapiens, UniProt Q9NZ08); assay: ERAP1 trimming of MHCI-bound peptide followed by native-PAGE; format: biochemical
T2 construct: inferred from the nickel-NTA purification; made in house; host or cells: Hi5 insect cells, recombinant baculovirus

ERAP1 [4] = molecular target: T2, ERAP1; assay: ERAP1 trimming of MHCI-bound peptide followed by MALDI-TOF-MS; format: biochemical; conditions: 20 nM or 100 nM ERAP1; stopped with TFA; 100 mM DTT added to free peptide
Procedure: To confirm the above finding we followed the trimming reaction by MALDI-TOF–MS which allows the concurrent detection of several peptide species. HLA-B*08(E76C)- […] was incubated with either 20 nM or 100 nM of ERAP1 and the reaction was stopped by the addition of TFA and flash-frozen. MALDI-TOF–MS analysis was performed as described before, but with the addition of 100 mM DTT to reduce the disulfide linkage to the complex so that the freed peptide can be detected (Fig. 2D).
Detection of peptides bound onto ΗLA-B*08:01 by MALDI-TOF–MS was performed as previously described[17] with the exception that 100 mM DTT was added to 10 μL samples of ΗLA-B*08:01(E76C) protein complexes to break the disulfide bond and allow detection of the peptide.

HLA-B*08 [5] = conditions: non-covalently linked peptide, with AI9; cited from earlier work
ERAP1 [6] = molecular target: T2, ERAP1; conditions: cited from earlier work
ERAP1 [7] = molecular target: T2, ERAP1; conditions: cited from earlier work; remark: listed apart in the source
HLA-B*08:01 = HLA-B*08:01 (Homo sapiens, UniProt P01889, A93T/A95T/D138N/E176V/E187T/K202T/Q94N/R180D/S35A/V36M/Y33D/Y91F); conditions: cited from earlier work
ERAP1 [8] = molecular target: T2, ERAP1; assay: Fluorigenic enzymatic assay: inhibition of ERAP1 hydrolysis of Leu-AMC; format: biochemical
Procedure: Expression and purification of ERAP1 was performed as described previously. Briefly, ERAP1 was expressed in Hi5 insect cells after infection with recombinant baculovirus at 27 °C. Protein was isolated by affinity chromatography using nickel-nitrilotriacetic acid–agarose beads. Protein aliquots were kept at − 80 °C in Hepes/NaCl buffer pH 7.0 supplemented with 10% (v/v) glycerol, until needed.
ERAP1 enzymatic activity and inhibitor IC50 values were calculated as previously reported. Briefly, hydrolysis of the fluorescent substrate leucine-aminomethylcoumarin (Leu-AMC, Sigma–Aldrich, L2145) was followed at 460 nm (excitation at 380 nm) using a Spark 10 M (TECAN) multimode microplate reader. The IC50 of DG080 was calculated by using the equation log (inhibitor) versus response-variable slope of GraphPad Prism 8.0™.

ERAP1 [9] = molecular target: T2, ERAP1; assay: ERAP1 ternary complex formation, native-PAGE band shift; format: binding; conditions: equimolar mixture of ERAP1 and complex
Excerpt: The phosphinic head of the DG080 pseudopeptide should provide it with high affinity for the active site of ERAP1. To validate this assumption, we mixed free DG080 with ERAP1 and followed ERAP1 activity using the small fluorigenic substrate L-Leucine-7-amido-4-methylcoumarin (Leu-AMC)[24]. […] Due to the low amounts of complex available, we performed assays at a fixed concentration of 1 μΜ for both free DG080 and HLA-B*08(E76C)-DG080 complex. At that concentration, free DG080 was able to inhibit almost 90% of ERAP1 activity, consistent with its measured IC50. […] We conclude that although DG080 in solution has full access to the ERAP1 active site, DG080 covalently bound onto HLA-B*08 has very limited access to the active site of ERAP1, possibly due to steric hindrances that limit a proper binding orientation necessary so that the ERAP1 active site can approach the MHCI binding groove. To validate the stability of the HLA-B*08(E76C)-DG080 versus ERAP1 trimming or peptide exchange, we first incubated the complex with 20 nM ERAP1 at 37 °C for 1 h and analyzed the sample by native-PAGE (Fig. 4C). […] To further explore a potential interaction between ERAP1 and the phosphinic N-terminus of the peptide bound onto HLA-B*08, we analyzed an equimolar mixture of ERAP1 with HLA-B*08(E76C)-DG080 by native PAGE (Fig. 4D). […]

[10] = molecular target: Endoplasmic Reticulum Aminopeptidase 1 (ERAP1) (UniProt Q9NZ08)
HLA-B*08 [11] = assay: Kinetic stability of complex by competition with SYPRO Orange (peptide dissociation); format: binding; conditions: 37 °C, 8 μM complex, 50X SYPRO Orange dye (4 μL in 20 μL), excitation 533 nm, emission 572 nm, non-covalent complex, each data point average of two repetitions
Procedure: as §1

[12] = 20 nM ERAP1, up to 2 h (0–120 min)

Molecule: ARAALRSRYWCI [disulfide-linked HLA-B*08/peptide complex]
- melting temperature (Tm) (HLA-B*08:01(E76C)): 44.0 ± 0.5 °C
- half-life of complex (t1/2) (HLA-B*08(E76C) [1]; SYPRO Orange competition, 8 μM complex, 50X SYPRO Orange dye (4 μL in 20 μL), excitation 533 nm, emission 572 nm, each data point average of three repetitions): 450 ± 38 min
- slowing of dye access to MHC binding groove by covalently linking the peptide (HLA-B*08(E76C) [1]; vs non-covalent HLA-B*08-ARAALRSRYWAI complex): almost 2 orders of magnitude
- peptide exchange (native-PAGE) in presence of DTT (HLA-B*08(E76C) [2]; 100 μM ALRSRYWAI + DTT (100 μM in Fig. 2B legend), incubation at RT): full exchange of the ARAALRSRYWCI with ALRSRYWAI
- peptide exchange (electrophoretic mobility in native-PAGE) (HLA-B*08(E76C) [2]; excess ALRSRYWAI (100 μM), 60 min at RT, no DTT): did not alter the electrophoretic mobility of the complex in native-PAGE suggesting no peptide exchange
- ERAP1 trimming: change in electrophoretic mobility (native-PAGE) (ERAP1 [3]; [12]): no change in electrophoretic mobility was observed
- time-dependent decrease of 12mer peptide on incubation with ERAP1 (MALDI-TOF-MS) (ERAP1 [4]): no time-dependent decrease of the 12mer peptide

Molecule: ARAALRSRYWAI [listing 1 of 2 here]
- ERAP1 trimming: change in electrophoretic mobility (native-PAGE) (ERAP1 [3]; [12]): ERAP1 was able to modify the electrophoretic mobility
- peptide exchange (native-PAGE) (HLA-B*08 [5]): similarly to the non-covalently linked AI12 peptide
- ERAP1 trimming half-life, MHCI-bound peptide (native-PAGE) (ERAP1 [6]): 18 min
- ERAP1 trimming while bound onto HLA-B*08:01 (ERAP1 [6]; non-covalent complex, compared with solution): ERAP1 can apparently trim this peptide while it is bound onto HLA-B*08:01, albeit slower than in solution
- ERAP1 trimming half-life, MHCI-bound peptide (MALDI-TOF-MS) (ERAP1 [7]): 20 to 30 min
- stability of complex with HLA-B*08:01 (HLA-B*08:01): thermodynamically stable but kinetically labile complex

Molecule: hFΨ[P(O)(OH)CH2]LGSGSGSAAKKKYCL [HLA-B*08(E76C)-DG080, disulfide-linked HLA-B*08/ phosphinic peptide complex]
- peptide exchange (electrophoretic mobility in native-PAGE) (HLA-B*08(E76C) [2]; excess (100 μM) ALRSRYWAI, 37 °C, 1 h): no change in electrophoretic mobility was evident
- ERAP1 trimming: change in electrophoretic mobility (native-PAGE) (ERAP1 [3]; 20 nM ERAP1, 37 °C, 1 h): No change in electrophoretic mobility was observed
- effect on ERAP1 enzymatic activity (ERAP1 [8]; complex, 1 μM, Leu-AMC hydrolysis, two measurements): unable to fully inactivate ERAP1, and had only a marginal effect on its enzymatic activity
- band shift with ERAP1 (stable ternary complex formation) (ERAP1 [9]): No band shifts were evident

Molecule: CC(C)CC(CP(=O)(O)[C@@H](N)CCc1ccccc1)C(=O)NCC(=O)N[C@@H](CO)C(=O)NCC(=O)N[C@@H](CO)C(=O)NCC(=O)N[C@@H](CO)C(=O)N[C@@H](C)C(=O)N[C@@H](C)C(=O)N[C@@H](CCCCN)C(=O)N[C@@H](CCCCN)C(=O)N[C@@H](CCCCN)C(=O)N[C@@H](Cc1ccc(O)cc1)C(=O)N[C@@H](CS)C(=O)N[C@@H](CC(C)C)C(=O)O (stereo partly shown) [DG080] (X1-GSGSGSAAKKKYCL-OH)
- inhibition at 1 µM (ERAP1 [8]; free peptide, 1 μM, Leu-AMC hydrolysis, two measurements): ~90%
- IC50 (ERAP1 [8]; free peptide, substrate Leu-AMC, excitation 380 nm, emission 460 nm, log(inhibitor) vs response-variable slope, each point average of two measurements): 350 ± 89 nM

Molecule: phosphinic pseudopeptide DG080, hFΨ[P(O)(OH)CH2]…
- inhibition of ERAP1 hydrolysis of Leu-AMC by titrated free DG080, IC50 [10]: 350 nM
- inhibition of ERAP1 hydrolysis of the fluorigenic substrate at a fixed 1 μΜ of free DG080 [10]: 90%

Molecule: ARAALRSRYWAI [listing 2 of 2 here]
- half-life of complex (t1/2) (HLA-B*08 [11]): 7 ± 1 min
